{"source": "paper PMC10657792", "about": "“Downstream Allosteric Modulation of NMDA Receptors by 3-Benzazepine Derivatives” (Molecular Neurobiology, 2023)", "key": {"GluN2B subunits": {"system": "GluN2B subunits", "conditions": "cited from earlier work"}, "GluN1b wt/ GluN2B F194A": {"molecular_target": "GluN1b wt/ GluN2B F194A (Rattus norvegicus, UniProt P35439+Q00960, F194A)", "test": "Ligand binding assay with [3H]ifenprodil, membranes of transfected HEK cells", "conditions": "5 nM radioligand, non-specific binding with 10 µM unlabeled ifenprodil, 37 °C; single replicate", "experimental": "(§1) One day prior to transfection, human embryonic kidney (HEK) cells were reseeded into T75 flasks, aiming for a confluency of 70% after 24 h. HEK cells were then transiently co-transfected with the cDNAs (GluN1-1a/ eGFP, GluN1-1b/eGFP, GluN2B/pDsRed2-N1, GluN2B F176A/pDsRed2-N1, and GluN2B F194A/pDsRed2-N1) encoding the NMDAR subunits using Lipofectamine 3000 (Thermo Fisher Scientific, Germany) according to the manufacturer’s instructions. Approximately 60 h after transfection, the cells were resuspended in Dulbecco’s phosphate-buffered saline (PBS), and the positively double transfected cells were sorted using fluorescence-activated cell sorting (FACS). The membrane preparation, the protein yield determination, and ligand binding assay were performed as previously described. Briefly, the affinity for NMDAR was evaluated using a receptor binding assay, in which racemic […] (60 Ci/mmol; BIOTREND, Cologne, Germany), served as radioligand. The membrane fragments of NMDAR expressing HEK cells were incubated with 5 nM [^3H]ifenprodil and TRIS/EDTA-buffer (5 mM TRIS/1 mM EDTA, pH 7.5) at 37 °C. To evaluate the unspecific binding, 10 µM unlabeled ifenprodil was used."}, "GluN1b wt/ GluN2B wt": {"molecular_target": "GluN1b wt/ GluN2B wt (Rattus norvegicus, UniProt P35439+Q00960)", "test": "Ligand binding assay with [3H]ifenprodil, membranes of transfected HEK cells", "conditions": "5 nM radioligand, non-specific binding with 10 µM unlabeled ifenprodil, 37 °C; single replicate", "experimental": "as §1"}, "GluN1a wt/ GluN2B F194A": {"molecular_target": "GluN1a wt/ GluN2B F194A (Rattus norvegicus, UniProt P35439+Q00960, F194A)", "test": "Ligand binding assay with [3H]ifenprodil, membranes of transfected HEK cells", "conditions": "5 nM radioligand, non-specific binding with 10 µM unlabeled ifenprodil, 37 °C; single replicate", "experimental": "as §1"}, "GluN1a wt/ GluN2B F176A": {"molecular_target": "GluN1a wt/ GluN2B F176A (Rattus norvegicus, UniProt P35439+Q00960, F176A)", "test": "Ligand binding assay with [3H]ifenprodil, membranes of transfected HEK cells", "conditions": "5 nM radioligand, non-specific binding with 10 µM unlabeled ifenprodil, 37 °C; single replicate", "experimental": "as §1"}, "GluN1b wt/ GluN2B F176A": {"molecular_target": "GluN1b wt/ GluN2B F176A (Rattus norvegicus, UniProt P35439+Q00960, F176A)", "sequence (Q00960 27-1482 F176A, other chains not shown)": "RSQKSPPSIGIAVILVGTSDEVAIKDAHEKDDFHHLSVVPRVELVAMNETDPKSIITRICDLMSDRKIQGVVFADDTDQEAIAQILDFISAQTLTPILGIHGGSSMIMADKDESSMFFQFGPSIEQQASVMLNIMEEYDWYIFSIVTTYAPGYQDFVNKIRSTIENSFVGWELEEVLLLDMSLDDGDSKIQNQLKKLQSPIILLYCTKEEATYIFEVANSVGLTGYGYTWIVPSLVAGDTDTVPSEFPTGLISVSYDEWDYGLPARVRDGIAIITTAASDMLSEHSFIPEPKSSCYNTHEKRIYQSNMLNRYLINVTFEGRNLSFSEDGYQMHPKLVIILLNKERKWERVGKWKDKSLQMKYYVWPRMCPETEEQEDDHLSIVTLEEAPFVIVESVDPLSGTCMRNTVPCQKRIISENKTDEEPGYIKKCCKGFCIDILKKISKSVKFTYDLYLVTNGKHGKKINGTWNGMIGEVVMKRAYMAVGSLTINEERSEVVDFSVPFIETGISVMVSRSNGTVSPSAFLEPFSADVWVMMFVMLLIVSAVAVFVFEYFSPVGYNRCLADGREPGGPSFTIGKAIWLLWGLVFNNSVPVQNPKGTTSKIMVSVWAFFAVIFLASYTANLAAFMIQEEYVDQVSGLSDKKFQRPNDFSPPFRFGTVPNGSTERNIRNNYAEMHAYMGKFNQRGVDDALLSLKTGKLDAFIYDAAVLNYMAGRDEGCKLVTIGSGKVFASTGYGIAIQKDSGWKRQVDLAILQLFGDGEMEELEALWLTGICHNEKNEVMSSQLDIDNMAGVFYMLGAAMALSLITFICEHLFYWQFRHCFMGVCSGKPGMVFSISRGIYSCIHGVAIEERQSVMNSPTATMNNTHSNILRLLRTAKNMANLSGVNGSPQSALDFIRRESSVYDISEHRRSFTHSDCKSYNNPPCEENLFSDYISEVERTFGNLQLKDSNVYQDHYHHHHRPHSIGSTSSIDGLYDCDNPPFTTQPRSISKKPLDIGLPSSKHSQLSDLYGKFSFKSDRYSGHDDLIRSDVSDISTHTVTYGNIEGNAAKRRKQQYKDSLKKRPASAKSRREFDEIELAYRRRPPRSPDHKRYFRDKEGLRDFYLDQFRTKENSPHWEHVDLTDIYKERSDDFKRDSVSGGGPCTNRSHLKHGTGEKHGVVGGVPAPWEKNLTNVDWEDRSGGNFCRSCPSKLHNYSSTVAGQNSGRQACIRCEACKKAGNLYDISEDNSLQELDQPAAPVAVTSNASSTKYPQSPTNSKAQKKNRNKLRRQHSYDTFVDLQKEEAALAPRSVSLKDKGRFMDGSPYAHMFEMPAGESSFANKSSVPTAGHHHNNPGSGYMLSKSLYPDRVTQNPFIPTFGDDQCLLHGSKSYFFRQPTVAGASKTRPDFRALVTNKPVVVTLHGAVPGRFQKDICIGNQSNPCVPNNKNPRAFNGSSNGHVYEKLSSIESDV", "test": "Ligand binding assay with [3H]ifenprodil, membranes of transfected HEK cells", "conditions": "5 nM radioligand, non-specific binding with 10 µM unlabeled ifenprodil, 37 °C; single replicate", "experimental": "as §1"}, "GluN1a wt/ GluN2B wt": {"molecular_target": "GluN1a wt/ GluN2B wt (Rattus norvegicus, UniProt P35439+Q00960)", "test": "Ligand binding assay with [3H]ifenprodil, membranes of transfected HEK cells", "conditions": "5 nM radioligand, non-specific binding with 10 µM unlabeled ifenprodil, 37 °C; single replicate", "experimental": "as §1"}, "GluN2B": {"system": "GluN2B", "set-up": "method as in PMID 35710735", "conditions": "PET, non-human primates; cited from earlier work"}, "GluN1a wt/ GluN2B F114A": {"molecular_target": "GluN1a wt/ GluN2B F114A (Rattus norvegicus, UniProt P35439+Q00960, F114A)", "sequence (Q00960 27-1482 F114A, other chains not shown)": "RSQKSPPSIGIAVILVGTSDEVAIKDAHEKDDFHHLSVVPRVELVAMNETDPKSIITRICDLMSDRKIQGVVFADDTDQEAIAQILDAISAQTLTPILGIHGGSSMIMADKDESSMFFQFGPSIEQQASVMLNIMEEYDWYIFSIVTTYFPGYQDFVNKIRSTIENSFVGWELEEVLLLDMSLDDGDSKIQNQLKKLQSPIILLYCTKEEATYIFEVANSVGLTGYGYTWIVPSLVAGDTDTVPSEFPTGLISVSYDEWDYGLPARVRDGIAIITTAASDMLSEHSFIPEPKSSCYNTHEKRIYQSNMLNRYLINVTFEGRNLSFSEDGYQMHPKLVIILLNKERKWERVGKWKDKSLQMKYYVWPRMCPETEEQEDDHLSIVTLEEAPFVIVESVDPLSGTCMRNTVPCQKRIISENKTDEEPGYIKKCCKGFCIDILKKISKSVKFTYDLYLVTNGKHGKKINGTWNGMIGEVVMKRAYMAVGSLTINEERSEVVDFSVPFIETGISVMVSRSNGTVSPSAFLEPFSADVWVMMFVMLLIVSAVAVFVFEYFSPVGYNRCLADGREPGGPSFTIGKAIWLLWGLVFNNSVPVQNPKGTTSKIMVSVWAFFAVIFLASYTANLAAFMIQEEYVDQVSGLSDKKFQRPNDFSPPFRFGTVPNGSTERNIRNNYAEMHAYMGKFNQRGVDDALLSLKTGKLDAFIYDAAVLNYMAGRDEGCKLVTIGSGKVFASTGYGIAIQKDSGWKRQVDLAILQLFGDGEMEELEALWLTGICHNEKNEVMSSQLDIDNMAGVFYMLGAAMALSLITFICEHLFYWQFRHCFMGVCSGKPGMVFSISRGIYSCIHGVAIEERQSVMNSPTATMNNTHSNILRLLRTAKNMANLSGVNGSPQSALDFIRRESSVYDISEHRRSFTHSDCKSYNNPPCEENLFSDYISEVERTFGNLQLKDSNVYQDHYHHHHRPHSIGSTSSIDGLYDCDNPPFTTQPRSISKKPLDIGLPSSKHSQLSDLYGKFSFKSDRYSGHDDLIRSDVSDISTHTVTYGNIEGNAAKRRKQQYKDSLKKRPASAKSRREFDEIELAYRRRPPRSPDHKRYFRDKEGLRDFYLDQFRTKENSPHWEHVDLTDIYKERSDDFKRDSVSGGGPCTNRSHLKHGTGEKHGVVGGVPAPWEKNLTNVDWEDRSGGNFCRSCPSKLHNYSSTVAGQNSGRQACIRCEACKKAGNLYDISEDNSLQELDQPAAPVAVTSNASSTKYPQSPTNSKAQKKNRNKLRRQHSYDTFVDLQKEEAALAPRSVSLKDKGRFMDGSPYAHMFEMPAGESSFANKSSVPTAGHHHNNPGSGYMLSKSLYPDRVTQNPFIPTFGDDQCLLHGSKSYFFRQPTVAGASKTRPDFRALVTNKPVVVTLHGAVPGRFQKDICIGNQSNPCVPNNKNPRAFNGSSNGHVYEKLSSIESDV", "test": "TEVC recording in X. laevis oocytes, GluN2B mutant screening", "assay_type": "cell-based", "conditions": "GluN1-1a/F114A, individual oocytes"}, "GluN1a wt/ GluN2B E236A": {"molecular_target": "GluN1a wt/ GluN2B E236A (Rattus norvegicus, UniProt P35439+Q00960, E236A)", "sequence (Q00960 27-1482 E236A, other chains not shown)": "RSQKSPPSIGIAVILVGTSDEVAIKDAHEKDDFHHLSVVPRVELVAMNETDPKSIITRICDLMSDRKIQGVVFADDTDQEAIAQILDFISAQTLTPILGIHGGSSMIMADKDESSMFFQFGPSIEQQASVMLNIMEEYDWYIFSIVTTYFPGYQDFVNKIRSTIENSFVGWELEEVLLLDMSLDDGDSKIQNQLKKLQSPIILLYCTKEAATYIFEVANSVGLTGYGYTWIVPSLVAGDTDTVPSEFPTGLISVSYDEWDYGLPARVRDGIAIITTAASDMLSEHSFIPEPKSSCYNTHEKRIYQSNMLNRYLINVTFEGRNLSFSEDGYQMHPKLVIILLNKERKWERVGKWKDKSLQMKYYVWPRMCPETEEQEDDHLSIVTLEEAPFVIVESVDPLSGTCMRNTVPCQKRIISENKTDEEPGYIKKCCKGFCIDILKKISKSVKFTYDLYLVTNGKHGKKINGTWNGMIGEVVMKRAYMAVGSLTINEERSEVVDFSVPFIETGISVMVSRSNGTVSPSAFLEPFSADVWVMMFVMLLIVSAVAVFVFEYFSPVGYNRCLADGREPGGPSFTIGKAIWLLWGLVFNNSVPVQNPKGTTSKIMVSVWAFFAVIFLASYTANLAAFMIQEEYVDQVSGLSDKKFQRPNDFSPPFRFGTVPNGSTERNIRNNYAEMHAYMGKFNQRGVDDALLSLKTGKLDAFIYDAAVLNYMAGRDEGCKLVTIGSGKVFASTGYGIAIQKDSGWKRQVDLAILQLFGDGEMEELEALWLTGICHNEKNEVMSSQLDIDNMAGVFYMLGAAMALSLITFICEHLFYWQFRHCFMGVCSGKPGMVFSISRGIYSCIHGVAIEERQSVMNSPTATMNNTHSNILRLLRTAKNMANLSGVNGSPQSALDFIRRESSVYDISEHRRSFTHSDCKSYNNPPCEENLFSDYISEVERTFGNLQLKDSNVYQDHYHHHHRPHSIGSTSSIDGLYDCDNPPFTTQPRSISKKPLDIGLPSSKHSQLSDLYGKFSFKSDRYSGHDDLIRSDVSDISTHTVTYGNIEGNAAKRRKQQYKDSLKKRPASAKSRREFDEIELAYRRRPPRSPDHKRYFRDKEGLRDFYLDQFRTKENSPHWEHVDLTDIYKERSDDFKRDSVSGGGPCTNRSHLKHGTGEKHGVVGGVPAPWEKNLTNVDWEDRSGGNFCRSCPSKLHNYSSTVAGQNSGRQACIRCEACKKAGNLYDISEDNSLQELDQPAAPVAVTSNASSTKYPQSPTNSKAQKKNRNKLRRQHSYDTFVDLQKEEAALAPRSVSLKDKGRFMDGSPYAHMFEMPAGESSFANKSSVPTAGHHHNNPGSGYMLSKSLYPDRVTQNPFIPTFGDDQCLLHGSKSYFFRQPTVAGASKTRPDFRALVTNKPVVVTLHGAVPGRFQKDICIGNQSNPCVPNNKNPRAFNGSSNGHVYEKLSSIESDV", "test": "TEVC recording in X. laevis oocytes, GluN2B mutant screening", "assay_type": "cell-based", "conditions": "GluN1-1a/E236A, individual oocytes"}, "[1]": {"conditions": "compound concentration 0.1 μM, 0.1 µM"}, "[2]": {"conditions": "compound concentration 1 μM, 1 µM"}, "[3]": {"conditions": "compound concentration 10 μM, 10 µM"}, "[4]": {"conditions": "compound concentration 30 μM, 30 µM"}}, "note": "Where “and” joins values, the source holds several entries; their conditions need not be identical. Equal entries are not always repeated.", "data": [{"molecule": "Oc1ccc2c(c1)CCN(CCCCc1ccccc1[18F])CC2O", "note": "(racemic) [^18F-OF-NB1]", "values": [{"measurement": "blood–brain barrier permeability", "setting": "GluN2B subunits", "result": "high"}, {"measurement": "cerebellar accumulation", "setting": "GluN2B subunits; ex vivo biodistribution assays", "result": "high cerebellar accumulation"}]}, {"molecule": "CC(C(O)c1ccc(O)cc1)N1CCC(Cc2ccccc2)CC1", "note": "(stereo not shown) [[^3H]ifenprodil, ifenprodil]", "values": [{"measurement": "specific binding (cpm)", "setting": "GluN1b wt/ GluN2B F194A", "result": "-0.5 cpm and -1.5 cpm"}, {"measurement": "specific binding (cpm)", "setting": "GluN1b wt/ GluN2B wt", "result": "4.5 cpm and 5.5 cpm and 11.5 cpm"}, {"measurement": "specific binding (cpm)", "setting": "GluN1a wt/ GluN2B F194A", "result": "3.5 cpm and 2.5 cpm and -1.5 cpm"}, {"measurement": "specific binding (cpm)", "setting": "GluN1a wt/ GluN2B F176A", "result": "4.5 cpm and 6.5 cpm"}, {"measurement": "specific binding (cpm)", "setting": "GluN1b wt/ GluN2B F176A", "result": "-1.5 cpm and -2.5 cpm and 0.5 cpm"}, {"measurement": "specific binding (cpm)", "setting": "GluN1a wt/ GluN2B wt", "result": "25.5 cpm and 9.5 cpm and 4.5 cpm"}]}, {"molecule": "Oc1ccc2c(c1)CCN(CCCCc1ccccc1[18F])C[C@@H]2O", "note": "[(R)-^18F-OF-NB1]", "values": [{"measurement": "affinity in vivo relative to the S-enantiomer", "setting": "GluN2B", "result": "four- to five-fold higher"}, {"measurement": "cingulate cortex accumulation", "setting": "GluN2B", "result": "high cingulate cortex accumulation"}, {"measurement": "uptake", "setting": "GluN2B", "result": "high uptake"}, {"measurement": "washout kinetics", "setting": "GluN2B", "result": "slow washout kinetics"}]}, {"molecule": "Oc1ccc2c(c1)CCN(CCCCc1ccccc1F)C[C@@H]2O", "note": "[OF-NB1 R]", "values": [{"measurement": "inhibition (%)", "setting": "GluN1a wt/ GluN2B F114A; [1]", "result": "0.07918% and 0.5179% and 0.211%"}, {"measurement": "inhibition (%)", "setting": "GluN1a wt/ GluN2B F114A; [2]", "result": "29.9386% and 5.971% and 22.998% and 16.9662%"}, {"measurement": "inhibition (%)", "setting": "GluN1a wt/ GluN2B F114A; [3]", "result": "58.532% and 61.9095% and 61.1489% and 64.1685%"}, {"measurement": "inhibition (%)", "setting": "GluN1a wt/ GluN2B F114A; [4]", "result": "87.8657% and 75.6136% and 78.22% and 87.6368%"}, {"measurement": "inhibition (%)", "setting": "GluN1a wt/ GluN2B E236A; compound concentration 0.001 μM, 0.001 µM", "result": "0.5349% and -0.3615% and 0.07864% and -0.02364% and -0.08675%"}, {"measurement": "inhibition (%)", "setting": "GluN1a wt/ GluN2B E236A; compound concentration 0.01 μM, 0.01 µM", "result": "2.174% and 5.182% and 1.1167% and -0.03546% and -0.1952%"}, {"measurement": "inhibition (%)", "setting": "GluN1a wt/ GluN2B E236A; [1]", "result": "22.83% and 11.3477% and 24.7562% and 0% and 0.08675%"}, {"measurement": "inhibition (%)", "setting": "GluN1a wt/ GluN2B E236A; [2]", "result": "62.3641% and 56.7584% and 57.7225% and 68.2307% and 52.0278%"}, {"measurement": "inhibition (%)", "setting": "GluN1a wt/ GluN2B E236A; [3]", "result": "74.0293% and 68.3069% and 74.5203% and 84.919% and 71.8716%"}, {"measurement": "inhibition (%)", "setting": "GluN1a wt/ GluN2B E236A; [4]", "result": "82.623% and 76.0795% and 83.6584% and 89.363% and 81.8261%"}]}]}
